Bounds are passed on as bounds.

Assay [1] addresses T1, ERα (Homo sapiens, UniProt P03372).
T1 sequence (P03372 311-547 limits assumed): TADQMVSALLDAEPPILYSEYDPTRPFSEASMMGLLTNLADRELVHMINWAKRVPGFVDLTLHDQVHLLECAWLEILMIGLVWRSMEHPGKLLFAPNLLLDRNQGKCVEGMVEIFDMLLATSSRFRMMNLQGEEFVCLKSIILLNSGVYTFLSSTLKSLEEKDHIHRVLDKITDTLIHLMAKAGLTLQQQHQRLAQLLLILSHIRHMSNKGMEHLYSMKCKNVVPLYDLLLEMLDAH
In words: Homogeneous in vitro functional assay, coactivator recruitment (FRET). It counts as biochemical. To be noted: FIG. 1. Here is the method: (§1) Structures 15 and 15′ were tested in a functional assay for ERβ and ERα as described in Liu J. et al. A Homogeneous in Vitro Functional Assay for Estrogen Receptors: Coactivator Recruitment. Mol Endocrinology 17, 346-355 (2003). Briefly, a homogeneous in vitro functional assay for measuring ligand-dependent transactivation function of ERαa and ERβ was used to measure selectivity of structures 15 and 15′ as agonists for the two classes of receptors. Briefly, agonist binding of Structures 15 and 15′ were assessed by measuring Fluorescence Resonance Energy Transfer (FRET) between europium that is associated with ligand binding domains of ERα and ERβ, and allophycocyanine that is associated with co-activator peptide that is recruited to the LBD in response to agonist binding.

Assay [2] concerns the target T2, ERβ (Homo sapiens, UniProt Q92731). The assay is described as above. It is filed as biochemical. To be noted: for selectivity for ERβ: ERβ over ERα, functional assay. On the procedure: as §1
Target sequence in this assay (Q92731 264-498 limits assumed): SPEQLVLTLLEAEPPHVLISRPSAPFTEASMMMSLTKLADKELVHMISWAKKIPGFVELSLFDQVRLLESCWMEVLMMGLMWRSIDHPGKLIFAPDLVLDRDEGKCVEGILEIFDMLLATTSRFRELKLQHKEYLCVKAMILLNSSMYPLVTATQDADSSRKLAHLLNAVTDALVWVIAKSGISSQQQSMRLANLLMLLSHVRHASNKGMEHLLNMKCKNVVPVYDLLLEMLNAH
Assay [3] has as its target T3, ERα (Homo sapiens, UniProt P03372).
T3 sequence (P03372 1-595): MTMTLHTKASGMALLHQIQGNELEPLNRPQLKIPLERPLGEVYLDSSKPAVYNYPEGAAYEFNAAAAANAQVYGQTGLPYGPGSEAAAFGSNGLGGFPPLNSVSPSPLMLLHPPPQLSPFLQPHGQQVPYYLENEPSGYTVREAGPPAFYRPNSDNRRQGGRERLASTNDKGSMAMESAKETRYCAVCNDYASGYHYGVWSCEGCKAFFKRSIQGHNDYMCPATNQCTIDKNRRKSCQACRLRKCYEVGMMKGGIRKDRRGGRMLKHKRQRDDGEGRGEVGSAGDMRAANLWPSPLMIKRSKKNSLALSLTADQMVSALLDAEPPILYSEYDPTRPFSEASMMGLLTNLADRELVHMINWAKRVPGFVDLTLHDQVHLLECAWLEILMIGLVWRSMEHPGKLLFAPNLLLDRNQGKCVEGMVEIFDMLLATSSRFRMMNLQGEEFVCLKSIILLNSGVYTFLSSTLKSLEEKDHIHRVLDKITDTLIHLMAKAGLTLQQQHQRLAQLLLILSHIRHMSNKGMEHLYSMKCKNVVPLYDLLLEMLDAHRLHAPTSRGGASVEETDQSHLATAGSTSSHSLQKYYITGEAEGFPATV
In words: Binding assay, inhibition of [3H] estradiol binding to hER. On the procedure:
(§2) Structures 3 and 3' were tested in a binding assay for ERβ and ERα as described in Obourn […]. & Notides A. C. Hormone-and DNA-Binding Mechanisms of the Recombinant Human Estrogen Receptor. Biochemistry 32, 6229-6236 (1993). Briefly, agonist binding of Structure 3 and Structure 3' to ERα and ERβ were assessed by Scatchard analysis measuring inhibition of [^3H] estradiol binding to hER by Structure 3 and 3'.

For assay [4], the target named is T2, ERβ. Described as above. To be noted: FIG. 2. On the procedure: as §2
Target sequence in this assay (Q92731 whole entry): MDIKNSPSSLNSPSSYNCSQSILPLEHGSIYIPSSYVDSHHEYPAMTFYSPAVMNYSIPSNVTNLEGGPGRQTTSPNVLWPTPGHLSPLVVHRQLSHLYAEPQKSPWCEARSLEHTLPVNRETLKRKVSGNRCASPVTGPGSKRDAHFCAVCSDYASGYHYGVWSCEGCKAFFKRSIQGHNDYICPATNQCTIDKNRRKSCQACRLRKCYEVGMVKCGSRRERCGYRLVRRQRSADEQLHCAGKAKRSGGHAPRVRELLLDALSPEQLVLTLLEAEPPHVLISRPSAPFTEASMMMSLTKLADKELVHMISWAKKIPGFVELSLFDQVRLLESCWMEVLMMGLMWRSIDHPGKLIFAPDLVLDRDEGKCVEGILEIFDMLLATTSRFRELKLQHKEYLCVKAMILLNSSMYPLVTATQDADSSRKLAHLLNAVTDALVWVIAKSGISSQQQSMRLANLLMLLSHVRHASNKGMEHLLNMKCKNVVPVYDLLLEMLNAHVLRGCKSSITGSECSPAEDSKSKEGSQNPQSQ
Assay [5] deals with T3, ERα. In words: Dual estrogen receptor TR-FRET functional assay. It counts as biochemical. To be noted: dual ER TR-FRET assay. Here is the method: (§3) Structures 3 and 3' were tested in a functional assay for ERβ and ERα as described in […]., Puetter V., Otto C. Parczyk K. & Bader B. A Dual Estrogen Receptor TR-FRET Assay for Simultaneous Measurement of Steroid Site Binding and Coactivator Recruitment. J Biomolec Screening 15, 268-278 (2010). Briefly, agonist binding of Structures 3 and 3' to ERα and ERβ were assessed by a dual estrogen receptor TR-FRET assay.

For assay [6], the target named is T2, ERβ. The assay is described as follows: Dual estrogen receptor TR-FRET functional assay. It is filed as biochemical. To be noted: dual ER TR-FRET assay, FIG. 3. On the procedure: as §3
Target sequence in this assay (Q92731 whole entry): as above

`COC(=O)CC[C@H]1C[C@H]2[C@@H]3CCc4cc(O)ccc4[C@H]3CC[C@]2(C)[C@H]1O` [Compound 15]: the EC50 was over 100000 nM on ERα [1] and about 10000 nM at ERβ [2] (functional coactivator recruitment FRET assay, FIG. 1). The “selectivity for ERβ” value at ERβ [2] was over 10 fold.
As to `COC(=O)CC[C@@H]1C[C@H]2[C@@H]3CCc4cc(O)ccc4[C@H]3CC[C@]2(C)[C@H]1O` [Compound 15′, reference compound], the “selectivity for ERβ” value on ERβ [2] is about 2 fold.
For the molecule `CCOC(=O)[C@H]1C[C@H]2[C@@H]3CCc4cc(O)ccc4[C@H]3CC[C@]2(C)[C@H]1O` [Structure 3], the results for the IC50 at ERα [3] (FIG. 2) and at ERβ [4] were 78 nM and 100 nM, respectively. In addition, the values for the EC50 on ERα [5] (FIG. 3A) and on ERβ [6] were 1080 nM and 3000 nM, respectively.
For the molecule `CCOC(=O)[C@@H]1C[C@H]2[C@@H]3CCc4cc(O)ccc4[C@H]3CC[C@]2(C)[C@H]1O` [Structure 3′, reference compound], the values for the IC50 on ERα [3] (FIG. 2B) and at ERβ [4] were 1.46 nM and 140 nM, respectively. Also, the values for the EC50 at ERα [5] (FIG. 3B) and at ERβ [6] were 5.92 nM and over 10000 nM, respectively.

The values above are taken from patent US20240294566A1, “ESTROGEN RECEPTOR BETA SELECTIVE LIGANDS” (Or-Genix Therapeutics, Inc., priority 2016, published 2024).
